Laboratory results: publication PMC9135634 (Nature chemical biology, 2022)
Values belong to the compound of their own block, whether it stands above or below them.

Tests used:
[1] = target: HRAS WT (Homo sapiens, UniProt P01112); assay: RAS BRET target engagement assay, live HEK-293 cells; type: cell-based
[2] = target: HRAS(G12C) (Homo sapiens, UniProt P01112, G12C); assay: as above
[3] = target: KRAS(G12C) (Homo sapiens, UniProt P01116, G12C); assay: as above; type: cell-based; conditions: BRET competition
[4] = target: KRAS WT (Homo sapiens, UniProt P01116); assay: RAS BRET target engagement assay; type: cell-based; conditions: across all RAS variants studied
[5] = target: NanoBiT-KRAS WT (Homo sapiens, UniProt P01116); assay: NanoBiT-RAS luminescence; type: cell-based; conditions: live cells; titration
[6] = target: KRAS(D54R) : CRAF(RBD) (Homo sapiens, UniProt P01116, D54R); assay: NanoBiT-KRAS:CRAF; type: cell-based
[7] = target: NanoLuc-ABL1 (Homo sapiens, UniProt P00519); assay: NanoBRET TE Intracellular Kinase Assay, K-4; type: cell-based
[8] = target: KRAS(Y96D) (Homo sapiens, UniProt P01116, Y96D); assay: RAS BRET target engagement assay, live HEK-293 cells; type: cell-based
[9] = test system: A375 cells; assay: Anti-proliferative activity, CellTiter-Glo 2.0; type: cell-based; conditions: BRAF V600E, RAS-independent
[10] = test system: HEK-293 cells; type: cell-based; conditions: RAS-independent cell line

NanoLuc-ABL1, sequence (P00519 whole entry): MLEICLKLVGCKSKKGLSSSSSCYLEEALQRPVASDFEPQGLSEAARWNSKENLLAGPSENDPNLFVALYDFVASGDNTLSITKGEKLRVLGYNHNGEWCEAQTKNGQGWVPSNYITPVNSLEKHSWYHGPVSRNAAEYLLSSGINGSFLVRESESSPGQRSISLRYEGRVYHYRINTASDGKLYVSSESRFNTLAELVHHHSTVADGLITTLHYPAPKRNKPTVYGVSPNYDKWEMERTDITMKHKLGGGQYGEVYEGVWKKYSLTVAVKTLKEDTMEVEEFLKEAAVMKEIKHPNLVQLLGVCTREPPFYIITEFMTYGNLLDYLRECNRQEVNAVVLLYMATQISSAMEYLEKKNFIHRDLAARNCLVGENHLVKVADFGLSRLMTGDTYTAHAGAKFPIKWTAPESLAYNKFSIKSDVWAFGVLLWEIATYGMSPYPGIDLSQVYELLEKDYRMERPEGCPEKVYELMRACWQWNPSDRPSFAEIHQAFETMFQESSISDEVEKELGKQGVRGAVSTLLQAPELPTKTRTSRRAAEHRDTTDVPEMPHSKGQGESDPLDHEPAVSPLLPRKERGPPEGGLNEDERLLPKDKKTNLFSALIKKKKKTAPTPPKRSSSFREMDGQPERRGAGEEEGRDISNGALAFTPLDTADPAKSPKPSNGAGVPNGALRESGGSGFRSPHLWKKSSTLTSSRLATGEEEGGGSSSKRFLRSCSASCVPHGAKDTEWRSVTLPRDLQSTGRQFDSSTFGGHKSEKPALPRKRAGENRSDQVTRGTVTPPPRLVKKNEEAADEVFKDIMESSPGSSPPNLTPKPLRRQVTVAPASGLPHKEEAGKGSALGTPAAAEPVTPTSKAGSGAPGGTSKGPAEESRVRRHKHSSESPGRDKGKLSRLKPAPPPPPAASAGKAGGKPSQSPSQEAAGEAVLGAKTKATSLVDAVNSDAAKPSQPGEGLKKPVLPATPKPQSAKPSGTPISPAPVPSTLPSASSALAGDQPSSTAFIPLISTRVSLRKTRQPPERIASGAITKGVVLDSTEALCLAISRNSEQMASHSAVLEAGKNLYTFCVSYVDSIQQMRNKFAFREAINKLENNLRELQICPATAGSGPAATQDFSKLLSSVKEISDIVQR

BRET engagement [1]: No engagement | BRET engagement [2]: showed vulnerability
Structure (SMILES): C=CC(=O)N1CCN(c2nc(=O)n(-c3c(C)ccnc3C(C)C)c3nc(-c4c(O)cccc4F)c(F)cc23)[C@@H](C)C1 [AMG510, sotorasib]

hill coefficient [3]: 1.1
Structure (SMILES): C=CC(=O)N1CCN(c2ncnc3c(F)c(-c4c(O)cccc4F)c(Cl)cc23)CC1 [ARS-1620]

Hill coefficients, mean [4]: 1.9 ± 0.7 | Hill coefficients, range [4]: 1.3−3.3 | effect on RAS dimerization NanoBiT signal [5]: did not impact | inhibition of CRAF-RBD interaction with KRAS(D54R) dimers [6]: unable to inhibit the interaction
Structure (SMILES): Cn1cnc(Cn2ccc3ccc(CNCc4[nH]c5ccccc5c4[C@H]4NC(=O)c5ccc(O)cc54)cc32)c1 [BI-2852]
effect on BRET or luminescence in irrelevant target engagement assay [7]: had no effect on the BRET or luminescence

BRET engagement [8]: not observed
Structure (SMILES): CCC(=O)N1CCN(c2nc(OC[C@@H]3CCCN3C)nc3c2CCN(c2cccc4cccc(Cl)c24)C3)C[C@@H]1CC#N [Compound 10]

BRET engagement [1]: No engagement | BRET engagement [2]: showed vulnerability | affinity for HRAS(G12C) weaker than that observed for KRAS(G12C) [2]: 3 orders of magnitude
Structure (SMILES): C=C(F)C(=O)N1CCN(c2nc(OC[C@@H]3CCCN3C)nc3c2CCN(c2cccc4cccc(Cl)c24)C3)C[C@@H]1CC#N [MRTX849]
anti-proliferative effect [9]: the same effect | anti-proliferative / cytotoxic effect [10]: the same effect
